Data published in publication PMC9518264, “Design and synthesis of novel quinazolinone-based derivatives as EGFR inhibitors with antitumor activity” (Journal of Enzyme Inhibition and Medicinal Chemistry, 2022).

What was measured:
SK-MEL-2 = test: cells; format: cell-based; conditions: Homo sapiens; SK-MEL-2; 10 μM; read-out: growth inhibition % (GI%)
SF-268 = test: cells; format: cell-based; conditions: Homo sapiens; SF-268; 10 μM; read-out: growth inhibition % (GI%)
HS 578T = test: cells; format: cell-based; conditions: Homo sapiens; HS 578T; 10 μM; read-out: growth inhibition % (GI%)
U251 = test: cells; format: cell-based; conditions: Homo sapiens, U-251; U251; 10 μM; read-out: growth inhibition % (GI%)
HT29 = test: cells; format: cell-based; conditions: Homo sapiens, HT-29; HT29; 10 μM; read-out: growth inhibition % (GI%)
IGROV1 = test: cells; format: cell-based; conditions: Homo sapiens, IGROV-1; IGROV1; 10 μM; read-out: growth inhibition % (GI%)
MCF7 = test: cells; format: cell-based; conditions: Homo sapiens; MCF7; 10 μM; read-out: growth inhibition % (GI%)
OVCAR-3 = test: NCI 60 cell line antiproliferative screening (SRB), Ovarian cancer; conditions: Homo sapiens, OVCAR-3, read-out: growth inhibition % (GI%)
LOX IMIV = test: cells; format: cell-based; conditions: Homo sapiens, 60 cell; LOX IMIV; 10 μM; read-out: growth inhibition % (GI%)
MDA-MB-435 = test: cells; format: cell-based; conditions: Homo sapiens; MDA-MB-435; 10 μM; read-out: growth inhibition % (GI%)
MDA-MB-468 = test: NCI 60 cell line antiproliferative screening (SRB), Breast cancer; conditions: Homo sapiens, MDA-MB-468, read-out: growth inhibition % (GI%)
NCI-H522 = test: cells; format: cell-based; conditions: Homo sapiens; NCI-H522; 10 μM; read-out: growth inhibition % (GI%)
SK-MEL-5 = test: cells; format: cell-based; conditions: Homo sapiens; SK-MEL-5; 10 μM; read-out: growth inhibition % (GI%)
SNB-19 = test: cells; format: cell-based; conditions: Homo sapiens; SNB-19; 10 μM; read-out: growth inhibition % (GI%)
MOLT-4 = test: cells; format: cell-based; conditions: Homo sapiens; MOLT-4; 10 μM; read-out: growth inhibition % (GI%)
T-47D = test: cells; format: cell-based; conditions: Homo sapiens, T47D; T-47D; 10 μM; read-out: growth inhibition % (GI%)
EKVX = test: cells; format: cell-based; conditions: Homo sapiens, 10 μM, read-out: growth inhibition % (GI%)
K-562 = test: cells; format: cell-based; conditions: Homo sapiens, K562; K-562; 10 μM; read-out: growth inhibition % (GI%)
A549/ATCC = test: cells; format: cell-based; conditions: Homo sapiens; A549/ATCC; 10 μM; read-out: growth inhibition % (GI%)
TK-10 = test: cells; format: cell-based; conditions: Homo sapiens; TK-10; 10 μM; read-out: growth inhibition % (GI%)
SR = test: cells; format: cell-based; conditions: Homo sapiens, 10 μM, read-out: growth inhibition % (GI%)
MDA-MB-231/ATCC = test: NCI 60 cell line antiproliferative screening (SRB), Breast cancer; format: cell-based; conditions: Homo sapiens, MDA-MB-231, read-out: growth inhibition % (GI%)
CCRF-CEM = test: cells; format: cell-based; conditions: Homo sapiens, 10 μM, read-out: growth inhibition % (GI%)
SN12C = test: cells; format: cell-based; conditions: Homo sapiens, 10 μM, read-out: growth inhibition % (GI%)
SW-620 = test: cells; format: cell-based; conditions: Homo sapiens; SW-620; 10 μM; read-out: growth inhibition % (GI%)
NCI-H226 = test: cells; format: cell-based; conditions: Homo sapiens; NCI-H226; 10 μM; read-out: growth inhibition % (GI%)
HOP-92 = test: cells; format: cell-based; conditions: Homo sapiens; HOP-92; 10 μM; read-out: growth inhibition % (GI%)
[1] = test system: panel of 60 tumour cell lines; test: NCI 60 cell line antiproliferative screening (SRB), whole panel or subpanels (means, ranges, words); format: cell-based, human; conditions: for antiproliferative activity against all tested cell lines: 10 μM single dose; for inhibition at 10 µM: Homo sapiens, 60 cell, mean over the cell line panel, read-out: Mean growth inhibition % (mean GI%)
UO-31 = test: cells; format: cell-based; conditions: Homo sapiens; UO-31; 10 μM; read-out: growth inhibition % (GI%)
HCT-15 = test: cells; format: cell-based; conditions: Homo sapiens; HCT-15; 10 μM; read-out: growth inhibition % (GI%)
PC-3 = test: cells; format: cell-based; conditions: Homo sapiens; PC-3; 10 μM; read-out: growth inhibition % (GI%)
SNB-75 = test: cells; format: cell-based; conditions: Homo sapiens; SNB-75; 10 μM; read-out: growth inhibition % (GI%)
786-0 = test: cells; format: cell-based; conditions: Homo sapiens; 786-0; 10 μM; read-out: growth inhibition % (GI%)
A498 = test: cells; format: cell-based; conditions: Homo sapiens; A498; 10 μM; read-out: growth inhibition % (GI%)
OVCAR-4 = test: cells; format: cell-based; conditions: Homo sapiens; OVCAR-4; 10 μM; read-out: growth inhibition % (GI%)
OVCAR-8 = test: cells; format: cell-based; conditions: Homo sapiens; OVCAR-8; 10 μM; read-out: growth inhibition % (GI%)
COLO-205 = test: cells; format: cell-based; conditions: Homo sapiens; COLO-205; 10 μM; read-out: growth inhibition % (GI%)
HOP-62 = test: cells; format: cell-based; conditions: Homo sapiens; HOP-62; 10 μM; read-out: growth inhibition % (GI%)
SK-MEL-28 = test: cells; format: cell-based; conditions: Homo sapiens; SK-MEL-28; 10 μM; read-out: growth inhibition % (GI%)
HCC-2998 = test: cells; format: cell-based; conditions: Homo sapiens; HCC-2998; 10 μM; read-out: growth inhibition % (GI%)
HCT-116 = test: cells; format: cell-based; conditions: Homo sapiens; HCT-116; 10 μM; read-out: growth inhibition % (GI%)
KM12 = test: cells; format: cell-based; conditions: Homo sapiens; KM12; 10 μM; read-out: growth inhibition % (GI%)
NCI-H322M = test: cells; format: cell-based; conditions: Homo sapiens, 10 μM, read-out: growth inhibition % (GI%)
SF-295 = test: cells; format: cell-based; conditions: Homo sapiens; SF-295; 10 μM; read-out: growth inhibition % (GI%)
ACHN = test: cells; format: cell-based; conditions: Homo sapiens, 10 μM, read-out: growth inhibition % (GI%)
SK-OV-3 = test: cells; format: cell-based; conditions: Homo sapiens; SK-OV-3; 10 μM; read-out: growth inhibition % (GI%)

CN1CCN(c2ccc(C=NNC(=O)CSc3nc4ccccc4c(=O)n3-c3ccccc3)cc2)CC1 [6i, N'-(4–(4-methylpiperazin-1-yl)benzylidene)-2-((4-oxo-3-phenyl-3,4-dihydroquinazolin-2-yl)thio) acetohydrazide]
inhibition at 10 µM (SK-MEL-2): < 15%
inhibition at 10 µM (SF-268): < 15%
inhibition at 10 µM (HS 578T): < 15%
inhibition at 10 µM (U251): < 15%
inhibition at 10 µM (HT29): < 15%
inhibition at 10 µM (IGROV1): < 15%
inhibition at 10 µM (MCF7): < 15%
inhibition at 10 µM (OVCAR-3): < 15%
inhibition at 10 µM (LOX IMIV): < 15%
inhibition at 10 µM (MDA-MB-435): < 15%
inhibition at 10 µM (MDA-MB-468): < 15%
inhibition at 10 µM (NCI-H522): < 15%
inhibition at 10 µM (SK-MEL-5): < 15%
inhibition at 10 µM (SNB-19): < 15%
inhibition at 10 µM (MOLT-4): < 15%
inhibition at 10 µM (T-47D): < 15%
inhibition at 10 µM (EKVX): < 15%
inhibition at 10 µM (K-562): < 15%
inhibition at 10 µM (A549/ATCC): < 15%
inhibition at 10 µM (TK-10): < 15%
inhibition at 10 µM (SR): < 15%
inhibition at 10 µM (MDA-MB-231/ATCC): < 15%
inhibition at 10 µM (CCRF-CEM): < 15%
inhibition at 10 µM (SN12C): < 15%
inhibition at 10 µM (SW-620): < 15%
inhibition at 10 µM (NCI-H226): < 15%
inhibition at 10 µM (HOP-92): < 15%
antiproliferative activity against all tested cell lines [1]: did not show activity
inhibition at 10 µM [1]: < 0%
inhibition at 10 µM (UO-31): < 15%
inhibition at 10 µM (HCT-15): < 15%
inhibition at 10 µM (PC-3): < 15%
inhibition at 10 µM (SNB-75): < 15%
inhibition at 10 µM (786-0): < 15%
inhibition at 10 µM (A498): 10.2%
inhibition at 10 µM (OVCAR-4): < 15%
inhibition at 10 µM (OVCAR-8): < 15%
inhibition at 10 µM (COLO-205): < 15%
inhibition at 10 µM (HOP-62): < 15%
inhibition at 10 µM (SK-MEL-28): < 15%
inhibition at 10 µM (HCC-2998): < 15%
inhibition at 10 µM (HCT-116): < 15%
inhibition at 10 µM (KM12): < 15%
inhibition at 10 µM (NCI-H322M): < 15%
inhibition at 10 µM (SF-295): < 15%
inhibition at 10 µM (ACHN): < 15%
inhibition at 10 µM (SK-OV-3): < 15%

O=C(CSc1nc2ccccc2c(=O)n1-c1ccccc1)NN=Cc1ccc(N2CCOCC2)cc1 [6h, N'-(4-morpholinobenzylidene)-2-((4-oxo-3-phenyl-3,4-dihydroquinazolin-2-yl)thio)acetohydrazide]
inhibition at 10 µM (SK-MEL-2): < 15%
inhibition at 10 µM (SF-268): < 15%
inhibition at 10 µM (HS 578T): < 15%
inhibition at 10 µM (U251): < 15%
inhibition at 10 µM (HT29): < 15%
inhibition at 10 µM (IGROV1): < 15%
inhibition at 10 µM (MCF7): < 15%
inhibition at 10 µM (OVCAR-3): < 15%
inhibition at 10 µM (LOX IMIV): < 15%
inhibition at 10 µM (MDA-MB-435): < 15%
inhibition at 10 µM (MDA-MB-468): < 15%
inhibition at 10 µM (NCI-H522): < 15%
inhibition at 10 µM (SK-MEL-5): < 15%
inhibition at 10 µM (SNB-19): < 15%
inhibition at 10 µM (MOLT-4): < 15%
inhibition at 10 µM (T-47D): < 15%
inhibition at 10 µM (EKVX): < 15%
inhibition at 10 µM (K-562): < 15%
inhibition at 10 µM (A549/ATCC): < 15%
inhibition at 10 µM (TK-10): < 15%
inhibition at 10 µM (SR): < 15%
inhibition at 10 µM (MDA-MB-231/ATCC): < 15%
inhibition at 10 µM (CCRF-CEM): < 15%
inhibition at 10 µM (SN12C): < 15%
inhibition at 10 µM (SW-620): < 15%
inhibition at 10 µM (NCI-H226): < 15%
inhibition at 10 µM (HOP-92): 18.7%
antiproliferative activity against all tested cell lines [1]: did not show activity
inhibition at 10 µM [1]: < 0%
inhibition at 10 µM (UO-31): < 15%
inhibition at 10 µM (HCT-15): < 15%
inhibition at 10 µM (PC-3): < 15%
inhibition at 10 µM (SNB-75): < 15%
inhibition at 10 µM (786-0): < 15%
inhibition at 10 µM (A498): 15.8%
inhibition at 10 µM (OVCAR-4): < 15%
inhibition at 10 µM (OVCAR-8): < 15%
inhibition at 10 µM (COLO-205): < 15%
inhibition at 10 µM (HOP-62): < 15%
inhibition at 10 µM (SK-MEL-28): < 15%
inhibition at 10 µM (HCC-2998): < 15%
inhibition at 10 µM (HCT-116): < 15%
inhibition at 10 µM (KM12): < 15%
inhibition at 10 µM (NCI-H322M): < 15%
inhibition at 10 µM (SF-295): < 15%
inhibition at 10 µM (ACHN): < 15%
inhibition at 10 µM (SK-OV-3): < 15%
